Patent EP4623908A1, “USE OF (-)-EPIGALLOCATECHIN GALLATE COMPOUND” (CF Pharmtech, Inc., priority 2022, dated 2024)

Test system: Bleomycin-Induced Pulmonary Fibrosis in Mice
Test: Bleomycin-induced pulmonary fibrosis model in mice (Example 4)
Format: in vivo, C57BL/6J mice
Conditions: for Hydroxyproline Content: mouse lung tissue, Mean±SEM
Method: A total of 56 male C57BL/6J mice, SPF grade, aged 7-10 weeks, with a body weight range of 20-35g, were purchased from SPF (Beijing) Biotechnology Co., Ltd..
Injectable Bleomycin (BLM, 15mg/vial, batch number 20067411): Hanhui Pharmaceutical Co., Ltd. • Solvent 1: Components include purified water, citric acid, and sodium citrate, a transparent, clear liquid. • Solvent 2: Sodium chloride injection (batch number K21080307), purchased from Hanhui Pharmaceuticals Co., Ltd (formerly Hisun-Pfizer Pharmaceuticals Co., Ltd.). • Hydroxyproline (HYP) assay kit: Purchased from Merck Sigma-Aldrich.
The mice were randomly divided into the following groups, with 8 mice in each group: • Sham operation group (normal control group), • Pulmonary fibrosis model group, • Oral gavage group, • Tracheal Nebulization groups 1-4.
On Day 1 (D1), the normal control group mice were administered solvent 2 (sodium chloride injection, 1 mL/kg) via tracheal nebulization. All other groups were administered bleomycin (2 mg/kg, 1 mL/kg) via tracheal nebulization in the morning and afternoon to construct the pulmonary fibrosis model.
The oral gavage dose for mice was 100 mg/kg (calculated based on the oral dose of 60 mg/kg for rats, according to FDA guidelines, and converted for equivalent oral dosage in mice by body surface area). The tracheal nebulization doses were 0.2 mg/kg, 0.4 mg/kg, 0.8 mg/kg, and 1.6 mg/kg. Both the normal control group and the pulmonary fibrosis model group were administered solvent 1 via tracheal nebulization once a day, starting on D10 post-model induction.
Mice from each group were anesthetized on Day 22 via intraperitoneal injection of chloral hydrate (50 mg/mL, 0.1 mL/10g) and sacrificed by abdominal aorta blood collection. All animals underwent dissection, and lung tissues were preserved. The total lung weight (including animals that died unexpectedly or were euthanized) was measured. The left lung was excised and stored at below -60°C for hydroxyproline content testing. The remaining right lung tissue and bronchioles were fixed in 10% neutral-buffered formalin and processed for routine histology: paraffin embedding, sectioning, HE staining, and Masson staining.
Lung coefficient = lung weight (mg)/body weight (g). [formula] Early-stage inflammation with infiltration of inflammatory cells, followed by the proliferation of fibroblasts and excessive collagen deposition, leads to an increase in lung coefficient. Thus, the lung coefficient serves as an indirect indicator of the inflammation and fibrosis degree in mice.
Mice were weighed prior to grouping, on the model induction day, after the first drug administration, and every 3 days thereafter. […] Changes in body weight reflect the effect of the drug administration. Statistical analysis was performed using two-way ANOVA and Tukey's multiple comparison test.
Lung tissue inflammation, fibroproliferation, and other pathological changes were evaluated by optical microscopy on HE-stained sections. Masson staining was used to assess the degree of fibrosis in lung tissue. Standardized terminology was applied to classify fibrosis, inflammatory cell infiltration, alveolar hemorrhage, dilation, epithelial hyperplasia, and fibrous exudate using a 4-point scale (mild, moderate, severe, and very severe).
Hydroxyproline content in lung tissue was measured according to the instructions of the assay kit.
Statistical tests commonly used in the field, such as Student's t-test, chi-square test, Mann-Whitney U test, Kruskal-Wallis test (H test), Jonckheere-Terpstra test, and Wilcoxon test, were performed. Statistical analysis was done using SPSS (13.0) software. Results are presented as mean ± standard error. Overall differences were evaluated by One-Way ANOVA for homogeneity of variance, followed by Dunnett's test for inter-group comparisons. When normality tests failed, Kruskal-Wallis test was used for inter-group comparisons. Two-Way ANOVA and Tukey's test were used for multiple comparisons between groups. […]

O=C(O[C@@H]1Cc2c(O)cc(O)cc2O[C@@H]1c1cc(O)c(O)c(O)c1)c1cc(O)c(O)c(O)c1 [EGCG, (-)-Epigallocatechin gallate]
fibrosis score vs model group (aerosol dose 0.4mg/kg or higher, P < 0.05): significant reduction in pulmonary fibrosis
inhibiting alveolar expansion (all tracheal nebulization groups (0.2, 0.4, 0.8, 1.6mg/kg), 0.4mg/kg most effective): significant differences compared to the model group
inhibiting inflammatory cell infiltration (all tracheal nebulization groups, 0.4mg/kg best (P < 0.05)): reduced inflammatory cell infiltration
fibrosis in the lungs (Masson's staining) (inhaling 0.8mg/kg and 1.6mg/kg, D22): almost close to the level of the healthy control group
Hydroxyproline Content (D22, Inh. 0.2mg/kg once a day from D10): 2.807 ± 0.3982 µg/µL
Hydroxyproline Content (D22, Inh. 0.4mg/kg once a day from D10): 2.046 ± 0.690 µg/µL
Hydroxyproline Content (D22, Inh. 0.8mg/kg once a day from D10): 1.033 ± 0.1476 µg/µL
Hydroxyproline Content (D22, Inh. 1.6 mg/kg once a day from D10): 1.67 ± 0.1888 µg/µL
Hydroxyproline Content (D22, P.O 100mg/kg once a day from D10): 1.928 ± 0.1326 µg/µL
collagen deposition (Masson's staining) vs model group (oral administration 100 mg/kg, difference not significant, D22): decreased slightly
lung tissue histopathology (H&E staining) (oral administration 100 mg/kg, no significant difference vs model group, D22): slight improvement in lung tissue morphology
inhibiting inflammatory cell infiltration (oral administration (oral gavage) 100 mg/kg): no anti-inflammatory effect
alveolar inflammation scores vs model group (oral gavage 100 mg/kg): no significant difference
body weight (oral gavage 100 mg/kg): weight gain in the oral gavage group was slower
fibrosis score vs model group (oral gavage 100 mg/kg): did not show a significant difference
lung coefficient vs model group (oral gavage 100 mg/kg): did not show a significant difference
alveolar inflammation scores vs model group (tracheal nebulization): significantly suppressed the further development of alveolar inflammation
inhibiting alveolar hemorrhage (tracheal nebulization 0.2mg/kg and 0.4mg/kg): significantly better than the oral gavage group
lung coefficient vs model group (tracheal nebulization 0.2mg/kg and 0.4mg/kg, P < 0.01, P < 0.001): significantly reduced
body weight (tracheal nebulization 0.2mg/kg and 0.4mg/kg, significant vs model group): returned to baseline levels by Day 22
hydroxyproline content in lung tissue (in words) (tracheal nebulization 0.2mg/kg, 0.4mg/kg, and 0.8mg/kg, D22): dose-dependently reduced
inhibiting alveolar fibrous exudates (tracheal nebulization 1.6mg/kg): significant differences compared to the model group
lung tissue histopathology (H&E staining) (tracheal nebulization, best at 0.4mg/kg and 0.8mg/kg, D22): reduced alveolar interstitial proliferation
collagen deposition (Masson's staining) vs model group (tracheal nebulization, dose-response, especially 0.4mg/kg and above, D22): significantly reduced collagen deposition
